Patent US20250108032A1, “METHODS OF TREATING TYPE 1 DIABETES AND KIDNEY DISEASE” (LEXICON PHARMACEUTICALS, INC., priority 2023, published 2025)

Columns and labels:
T1D patients = conditions: cited from earlier work
[1] = system: adult patients with type 1 diabetes mellitus (overall and CKD cohorts); experiment: Pooled inTandem1 and inTandem2 double-blind clinical studies, sotagliflozin adjunct to optimized insulin; type: in vivo, human; conditions: for No Weight Gain at Week 52, HbA1c <7.0%: Absolute difference in % / No Weight Gain at Week 52, reduction in HbA1c ≥0.5%: Absolute difference in % / No Weight Gain at Week 52: % with absolute reduction in HbA1c ≥0.5% / No Weight Gain at Week 52: Percentage HbA1c <7.0% / Weight, LS Mean (SE) kg: Percent Change (%) from Baseline at Week 24 / Weight, LS Mean (SE) kg: Percent Change (%) from Baseline at Week 52 / Weight, LS Mean (SE): Treatment Comparison vs. PBO, Week 24 / Weight, LS Mean (SE): Treatment Comparison vs. PBO, Week 52 / Any TEAE, n (%) / Diarrhea, n (%) / Genital mycotic infection, n (%) / HbA1c change from Baseline, Week 52 Treatment Comparison LS Mean (SE), %: overall cohort; for HbA1c change from Baseline, Week 24 Treatment Comparison LS Mean (SE), % / HbA1c change from Baseline, Week 52 Treatment Comparison LS Mean (SE), %: vs placebo
Method: The efficacy of sotagliflozin as adjunct therapy in adult patients with type 1 diabetes mellitus who have inadequate glycemic control with insulin therapy was evaluated in two multicenter, double-blind clinical studies named “in Tandem1” and “in Tandem2”. Patients were randomized into three treatment groups: those treated with sotagliflozin 200 mg/day, those treated with sotagliflozin 400 mg/day; and those treated with placebo.
Details of the in Tandem1 study have been reported. See, e.g., Buse, J. B., et al., “Sotagliflozin in Combination With Optimized Insulin Therapy in Adults With Type 1 Diabetes: The North American in Tandem1 Study” Diabetes Care 2018; 41: 1970-1980. Details of the in Tandem2 study have also been reported. See, e.g., Danne. T., et al., “HbA and Hypoglycemia 1c Reductions at 24 and 52 Weeks With Sotagliflozin in Combination With Insulin in Adults With Type 1 Diabetes: The European in Tandem2 Study” Diabetes Care 2018; 41: 1981-1990. Both studies included men and nonpregnant women aged≥18 years with T1D using either multiple daily injections (MDI) or subcutaneous insulin infusion (SCII) for insulin delivery and whose HbA1C was 7.0-11.0% at screening. Patients with β-hydroxybutyrate (BHB) levels>0.6 mmol/L at screening were excluded.
In both studies, insulin therapy was optimized for six weeks prior to randomization, and optimized insulin continued until the study conclusion at week 52. After a two-week placebo run-in, patients were randomly assigned to double-blind treatment with sotagliflozin 200 or 400 mg or placebo for 52 weeks. Insulin optimization, which refers to the adjustment of insulin to meet standard-of-care glycemic targets, starting six weeks prior to randomization and continued for the entire study. An independent insulin dose monitoring committee (IDMC) assessed standard-of-care adherence and provided feedback to the principal investigator if deviations from standard of care were observed prior to week 24. HbA1c was masked to study staff during this period. Between week 24 and 52, insulin optimization continued without input from the IDMC, and HbA1c values were unmasked. Safety was monitored for 30 days after the last dose of study medication.
The primary endpoint of both studies was the change from baseline to week 24 in glycated hemoglobin A1C of either dose of sotagliflozin (400 mg or 200 mg) treatment group compared to placebo. Other endpoints included the change from baseline of sotagliflozin versus placebo in: the proportion of patients with A1C<7.0% and no episode of severe hypoglycemia and no episode of DKA; body weight, bolus insulin dose, fasting plasma glucose (FPG), diabetes treatment satisfaction questionnaire status (DTSQs) score; and Diabetes Distress Screening Scale (DDS2) questionnaire score.
Efficacy analyses were based on the mITT (modified Intent-to-Treat) population. Primary efficacy analyses were conducted based on data collected during the Core Treatment Period (Baseline through and including the week 24 visit assessments). As shown below in Table 2, sotagliflozin achieved its primary endpoint by leading to statistically significant lower A1C levels for both doses when compared to placebo in the pooled in Tandem1/in Tandem2 study results after the core treatment and long-term extension periods.

[2] = 200 mg/day vs placebo, CKD Cohort, 52 weeks
[3] = 200 mg/day vs placebo, Overall Cohort, 52 weeks
[4] = 200 mg/day, CKD Cohort N = 85, 52 weeks
[5] = 200 mg/day, overall cohort N = 524, positively adjudicated, through 52 Weeks
[6] = 400 mg/day vs placebo, CKD Cohort, 52 weeks
[7] = 400 mg/day vs placebo, Overall Cohort, 52 weeks
[8] = 400 mg/day, CKD Cohort N = 76, 52 weeks
[9] = 400 mg/day, overall cohort N = 525, positively adjudicated, through 52 Weeks

CCOc1ccc(Cc2cc([C@@H]3O[C@H](SC)[C@@H](O)[C@H](O)[C@H]3O)ccc2Cl)cc1 [sotagliflozin, (2S,3R,4R,5S,6R)-2-(4-chloro-3-(4-ethoxybenzyl)phenyl)-6-(methylthio)tetrahydro-2H-pyran-3,4,5-triol]
albuminuria (T1D patients): reduction in albuminuria
blood pressure (T1D patients): lowered blood pressure
eGFR (T1D patients): acute change in eGFR
hemoconcentration (T1D patients): induced mild hemoconcentration
risk of diabetic ketoacidosis (DKA) (T1D patients): increased
No Weight Gain at Week 52, HbA1c <7.0%: Absolute difference in % ([1]; 200 mg/day vs PBO): 12.6%
No Weight Gain at Week 52, reduction in HbA1c ≥0.5%: Absolute difference in % ([1]; 200 mg/day vs PBO): 14.9%
DKA, HR (95% CI) [1, 2]: 3.2 (0.4, 29.0)
Severe hypoglycemia, HR (95% CI) [1, 2]: 0.34 (0.13, 0.91)
DKA, HR (95% CI) [1, 3]: 15.0 (2.0, 113.3)
Severe hypoglycemia, HR (95% CI) [1, 3]: 0.76 (0.47, 1.22)
DKA, n (%) [1, 4]: 4 (4.7) n (%)
Severe hypoglycemia, n (%) [1, 4]: 6 (7.1) n (%)
No Weight Gain at Week 52: % with absolute reduction in HbA1c ≥0.5% ([1]; 200 mg/day): 23.7%
No Weight Gain at Week 52: Percentage HbA1c <7.0% ([1]; 200 mg/day): 21.8%
Weight, LS Mean (SE) kg: Percent Change (%) from Baseline at Week 24 ([1]; 200 mg/day): −1.70 (0.137) %
Weight, LS Mean (SE) kg: Percent Change (%) from Baseline at Week 52 ([1]; 200 mg/day): −2.31 (0.208) %
Weight, LS Mean (SE): Treatment Comparison vs. PBO, Week 24 ([1]; 200 mg/day): −2.17 (0.188) %
Weight, LS Mean (SE): Treatment Comparison vs. PBO, Week 52 ([1]; 200 mg/day): −3.21 (0.291) %
DKA, n (%) [1, 5]: 15 (2.9) n (%)
Severe hypoglycemia, n (%) [1, 5]: 30 (5.7) n (%)
HbA1c change from Baseline, Week 24 Treatment Comparison LS Mean (SE), % ([1]; 200 mg/day, overall cohort n = 524): −0.36%
Any TEAE, n (%) ([1]; 200 mg/day, through 52 Weeks): 393 (75.0) n (%)
Diarrhea, n (%) ([1]; 200 mg/day, through 52 Weeks): 34 (6.5) n (%)
Genital mycotic infection, n (%) ([1]; 200 mg/day, through 52 Weeks): 48 (9.2) n (%)
HbA1c change from Baseline, Week 52 Treatment Comparison LS Mean (SE), % ([1]; 200 mg/day): −0.23%
No Weight Gain at Week 52, HbA1c <7.0%: Absolute difference in % ([1]; 400 mg/day vs PBO): 17.0%
No Weight Gain at Week 52, reduction in HbA1c ≥0.5%: Absolute difference in % ([1]; 400 mg/day vs PBO): 20.0%
DKA, HR (95% CI) [1, 6]: 1.9 (0.2, 20.8)
Severe hypoglycemia, HR (95% CI) [1, 6]: 0.2 (0.06, 0.70)
DKA, HR (95% CI) [1, 7]: 20.3 (2.7, 151.2)
Severe hypoglycemia, HR (95% CI) [1, 7]: 0.58 (0.35, 0.97)
DKA, n (%) [1, 8]: 2 (2.6) n (%)
Severe hypoglycemia, n (%) [1, 8]: 3 (3.9) n (%)
No Weight Gain at Week 52: % with absolute reduction in HbA1c ≥0.5% ([1]; 400 mg/day): 28.8%
No Weight Gain at Week 52: Percentage HbA1c <7.0% ([1]; 400 mg/day): 26.1%
Weight, LS Mean (SE) kg: Percent Change (%) from Baseline at Week 24 ([1]; 400 mg/day): −2.55 (0.137) %
Weight, LS Mean (SE) kg: Percent Change (%) from Baseline at Week 52 ([1]; 400 mg/day): −3.33 (0.209) %
Weight, LS Mean (SE): Treatment Comparison vs. PBO, Week 24 ([1]; 400 mg/day): −3.02 (0.188) %
Weight, LS Mean (SE): Treatment Comparison vs. PBO, Week 52 ([1]; 400 mg/day): −4.24 (0.291) %
DKA, n (%) [1, 9]: 20 (3.8) n (%)
Severe hypoglycemia, n (%) [1, 9]: 23 (4.4) n (%)
HbA1c change from Baseline, Week 24 Treatment Comparison LS Mean (SE), % ([1]; 400 mg/day, overall cohort n = 525): −0.38%
Any TEAE, n (%) ([1]; 400 mg/day, through 52 Weeks): 390 (74.3) n (%)
Diarrhea, n (%) ([1]; 400 mg/day, through 52 Weeks): 46 (8.8) n (%)
Genital mycotic infection, n (%) ([1]; 400 mg/day, through 52 Weeks): 63 (12.0) n (%)
HbA1c change from Baseline, Week 52 Treatment Comparison LS Mean (SE), % ([1]; 400 mg/day): −0.32%
efficacy (A1C, body weight, DTSQ change from baseline) by BMI subgroup ([1]; patients with BMI≥27 kg/m^2 compared to the lower BMI subgroup, Week 24): systematically better
relative risk of severe hypoglycemia ([1]; sotagliflozin compared to placebo in the CKD cohort): lower
relative risk of DKA ([1]; sotagliflozin relative to placebo in the CKD cohort): not significantly higher
A1C and BW in the CKD subgroup ([1]; to a similar extent as the overall cohort): significantly reduced
